Measurements: ChEMBL document CHEMBL1821658, “Synthesis, antimicrobial evaluation and QSAR analysis of novel nalidixic acid based 1,2,4-triazole derivatives” (2011)
Values after ≈ are worked out from the molar mass of the structure shown.

How the values were obtained:
Format in all cases: functional
Pseudomonas aeruginosa = experiment: Antibacterial activity against Pseudomonas aeruginosa ATCC 9027 after 24 hrs by broth micro dilution assay; conditions: ATCC 9027, 24 h
Fusarium oxysporum = experiment: Antifungal activity against Fusarium oxysporum by food poison technique; conditions: read-out: ED50 (the source's name)
Escherichia coli = experiment: Antibacterial activity against Escherichia coli ATCC 8739 after 24 hrs by broth micro dilution assay; conditions: ATCC 8739, 24 h
Bacillus subtilis = experiment: Antibacterial activity against Bacillus subtilis ATCC 12711 after 24 hrs by broth micro dilution assay; conditions: ATCC 12711, 24 h
Staphylococcus aureus = experiment: Antibacterial activity against Staphylococcus aureus ATCC 2937 after 24 hrs by broth micro dilution assay; conditions: ATCC 2937, 24 h
Klebsiella pneumoniae = experiment: Antibacterial activity against Klebsiella pneumoniae ATCC 31488 after 24 hrs by broth micro dilution assay; conditions: ATCC 31488, 24 h
Aspergillus niger = experiment: Antifungal activity against Aspergillus niger by food poison technique; conditions: read-out: ED50 (the source's name)

Row | Compound | MIC90 (Pseudomonas aeruginosa) | EC50 (Fusarium oxysporum) | MIC90 (Escherichia coli) | MIC90 (Bacillus subtilis) | MIC90 (Staphylococcus aureus) | MIC90 (Klebsiella pneumoniae) | EC50 (Aspergillus niger)
1 | CCn1cc(-c2nnc(S)n2/N=C/c2ccc(Br)cc2)c(=O)c2ccc(C)nc21 | 62 µg/mL (≈ 132 µM) | 107 µg/mL (≈ 227 µM) | 250 µg/mL (≈ 533 µM) | 250 µg/mL (≈ 533 µM) | 125 µg/mL (≈ 266 µM) | 250 µg/mL (≈ 533 µM) | 144 µg/mL (≈ 306 µM)
2 | CCn1cc(-c2nnc(S)n2N)c(=O)c2ccc(C)nc21 | 63 µg/mL (≈ 208 µM) | 382 µg/mL (≈ 1260 µM) | 125 µg/mL (≈ 413 µM) | 63 µg/mL (≈ 208 µM) | 63 µg/mL (≈ 208 µM) | 63 µg/mL (≈ 208 µM) | 567 µg/mL (≈ 1880 µM)
3 | CCn1cc(-c2nnc(S)n2/N=C/c2ccccc2)c(=O)c2ccc(C)nc21 | 16 µg/mL (≈ 41 µM) | 78.2 µg/mL (≈ 200 µM) | 16 µg/mL (≈ 41 µM) | 250 µg/mL (≈ 640 µM) | 250 µg/mL (≈ 640 µM) | 16 µg/mL (≈ 41 µM) | 77.7 µg/mL (≈ 199 µM)
4 | CCn1cc(-c2nnc(S)n2/N=C/c2ccc(F)cc2)c(=O)c2ccc(C)nc21 | 16 µg/mL (≈ 39.2 µM) | 163 µg/mL (≈ 400 µM) | 250 µg/mL (≈ 612 µM) | 63 µg/mL (≈ 154 µM) | 125 µg/mL (≈ 306 µM) | 250 µg/mL (≈ 612 µM) | 134 µg/mL (≈ 327 µM)
5 | CCn1cc(-c2nnc(S)n2/N=C/c2ccc(Cl)cc2)c(=O)c2ccc(C)nc21 | 16 µg/mL (≈ 37.7 µM) | 79.5 µg/mL (≈ 187 µM) | 250 µg/mL (≈ 588 µM) | 16 µg/mL (≈ 37.7 µM) | 125 µg/mL (≈ 294 µM) | 250 µg/mL (≈ 588 µM) | 120 µg/mL (≈ 282 µM)
6 | CCn1cc(-c2nnc(S)n2/N=C/c2cccc(Br)c2)c(=O)c2ccc(C)nc21 | 16 µg/mL (≈ 34.1 µM) | 74.1 µg/mL (≈ 158 µM) | 125 µg/mL (≈ 266 µM) | 16 µg/mL (≈ 34.1 µM) | 125 µg/mL (≈ 266 µM) | 31 µg/mL (≈ 66 µM) | 111 µg/mL (≈ 237 µM)
7 | CCn1cc(-c2nnc(S)n2/N=C/c2cccc([N+](=O)[O-])c2)c(=O)c2ccc(C)nc21 | 63 µg/mL (≈ 145 µM) | 138 µg/mL (≈ 317 µM) | 125 µg/mL (≈ 287 µM) | 125 µg/mL (≈ 287 µM) | 125 µg/mL (≈ 287 µM) | 250 µg/mL (≈ 574 µM) | 161 µg/mL (≈ 369 µM)
8 | CCn1cc(-c2nnc(S)n2/N=C/c2ccc([N+](=O)[O-])cc2)c(=O)c2ccc(C)nc21 | 63 µg/mL (≈ 145 µM) | 100 µg/mL (≈ 230 µM) | 125 µg/mL (≈ 287 µM) | 125 µg/mL (≈ 287 µM) | 125 µg/mL (≈ 287 µM) | 63 µg/mL (≈ 145 µM) | 149 µg/mL (≈ 342 µM)
9 | CCn1cc(-c2nnc(S)n2/N=C/c2ccc(C#N)cc2)c(=O)c2ccc(C)nc21 | 63 µg/mL (≈ 152 µM) | 177 µg/mL (≈ 426 µM) | 125 µg/mL (≈ 301 µM) | 63 µg/mL (≈ 152 µM) | 63 µg/mL (≈ 152 µM) | 63 µg/mL (≈ 152 µM) | 156 µg/mL (≈ 376 µM)
10 | CCn1cc(-c2nnc(S)n2/N=C/c2ccc(C(F)(F)F)cc2)c(=O)c2ccc(C)nc21 | 63 µg/mL (≈ 137 µM) | 101 µg/mL (≈ 220 µM) | 250 µg/mL (≈ 545 µM) | 63 µg/mL (≈ 137 µM) | 250 µg/mL (≈ 545 µM) | 125 µg/mL (≈ 273 µM) | 299 µg/mL (≈ 652 µM)
11 | CCn1cc(-c2nnc(S)n2/N=C/c2ccc(O)cc2)c(=O)c2ccc(C)nc21 | 63 µg/mL (≈ 155 µM) | 203 µg/mL (≈ 500 µM) | 125 µg/mL (≈ 308 µM) | 125 µg/mL (≈ 308 µM) | 125 µg/mL (≈ 308 µM) | 125 µg/mL (≈ 308 µM) | 549 µg/mL (≈ 1350 µM)
12 | CCn1cc(-c2nnc(S)n2/N=C/c2ccc(OC)cc2)c(=O)c2ccc(C)nc21 | 16 µg/mL (≈ 38.1 µM) | 152 µg/mL (≈ 362 µM) | 250 µg/mL (≈ 595 µM) | 16 µg/mL (≈ 38.1 µM) | 125 µg/mL (≈ 297 µM) | 31 µg/mL (≈ 73.7 µM) | 105 µg/mL (≈ 249 µM)
13 | CCOc1ccc(/C=N/n2c(S)nnc2-c2cn(CC)c3nc(C)ccc3c2=O)cc1 | 63 µg/mL (≈ 145 µM) | 89.3 µg/mL (≈ 206 µM) | 125 µg/mL (≈ 288 µM) | 63 µg/mL (≈ 145 µM) | 125 µg/mL (≈ 288 µM) | 63 µg/mL (≈ 145 µM) | 86.6 µg/mL (≈ 199 µM)
14 | CCn1cc(-c2nnc(S)n2/N=C/c2ccc(C)cc2)c(=O)c2ccc(C)nc21 | 63 µg/mL (≈ 156 µM) | 205 µg/mL (≈ 507 µM) | 125 µg/mL (≈ 309 µM) | 125 µg/mL (≈ 309 µM) | 63 µg/mL (≈ 156 µM) | 63 µg/mL (≈ 156 µM) | 76.6 µg/mL (≈ 189 µM)
15 | CCc1ccc(/C=N/n2c(S)nnc2-c2cn(CC)c3nc(C)ccc3c2=O)cc1 | 63 µg/mL (≈ 151 µM) | 191 µg/mL (≈ 456 µM) | 250 µg/mL (≈ 597 µM) | 63 µg/mL (≈ 151 µM) | 63 µg/mL (≈ 151 µM) | 63 µg/mL (≈ 151 µM) | 229 µg/mL (≈ 547 µM)
16 | CCn1cc(-c2nnc(S)n2/N=C/c2ccc(C(C)C)cc2)c(=O)c2ccc(C)nc21 | 16 µg/mL (≈ 37 µM) | 106 µg/mL (≈ 246 µM) | 250 µg/mL (≈ 578 µM) | 16 µg/mL (≈ 37 µM) | 63 µg/mL (≈ 146 µM) | 125 µg/mL (≈ 289 µM) | 113 µg/mL (≈ 262 µM)
17 | CCn1cc(-c2nnc(S)n2/N=C/c2ccc(C(C)(C)C)cc2)c(=O)c2ccc(C)nc21 | 63 µg/mL (≈ 141 µM) | 117 µg/mL (≈ 262 µM) | 63 µg/mL (≈ 141 µM) | 31 µg/mL (≈ 69.4 µM) | 125 µg/mL (≈ 280 µM) | 63 µg/mL (≈ 141 µM) | 134 µg/mL (≈ 299 µM)
18 | CCn1cc(-c2nnc(S)n2/N=C/c2ccc(N(C)C)cc2)c(=O)c2ccc(C)nc21 | 16 µg/mL (≈ 36.9 µM) | 104 µg/mL (≈ 239 µM) | 63 µg/mL (≈ 145 µM) | 16 µg/mL (≈ 36.9 µM) | 125 µg/mL (≈ 288 µM) | 63 µg/mL (≈ 145 µM) | 101 µg/mL (≈ 233 µM)
19 | CCn1cc(-c2nnc(S)n2/N=C/c2ccc(SC)cc2)c(=O)c2ccc(C)nc21 | 63 µg/mL (≈ 144 µM) | 104 µg/mL (≈ 239 µM) | 250 µg/mL (≈ 573 µM) | 125 µg/mL (≈ 286 µM) | 250 µg/mL (≈ 573 µM) | 63 µg/mL (≈ 144 µM) | 251 µg/mL (≈ 574 µM)
20 | O=C(O)c1cn(C2CC2)c2cc(N3CCNCC3)c(F)cc2c1=O [CIPROFLOXACIN] | 1.25 µg/mL (≈ 3.77 µM) | – | 12.5 µg/mL (≈ 37.7 µM) | 12.5 µg/mL (≈ 37.7 µM) | 10 µg/mL (≈ 30.2 µM) | 2.5 µg/mL (≈ 7.54 µM) | –
21 | CN[C@@H]1[C@H](O[C@H]2[C@H](O[C@H]3[C@H](O)[C@@H](O)[C@H](N=C(N)N)[C@@H](O)[C@@H]3N=C(N)N)O[C@@H](C)[C@]2(O)C=O)O[C@@H](CO)[C@H](O)[C@H]1O [STREPTOMYCIN] | 4 µg/mL (≈ 6.88 µM) | – | 13 µg/mL (≈ 22.4 µM) | 5 µg/mL (≈ 8.6 µM) | 15 µg/mL (≈ 25.8 µM) | 2 µg/mL (≈ 3.44 µM) | –
